Measurements reported in article PMC2866738 (Biochemistry, 2010).

Tested on: IN double-mutant G140S-Q148H (SH)
Assay type: biochemical

Cc1nnc(C(=O)NC(C)(C)c2nc(C(=O)NCc3ccc(F)cc3)c(O)c(=O)n2C)o1 [RAL, Raltegravir]
increase in IC50 for 3′-P compared to WT (resistance factor): more than 62 fold
